Reference: patent US20240351994A1, “MAXI-K POTASSIUM CHANNEL OPENERS FOR THE TREATMENT OF FRAGILE X ASSOCIATED DISORDERS” (Kaerus Bioscience Limited, priority 2020, published 2024)

Assays:
plasma proteins = conditions: cited from earlier work
[1] = single intraperitoneal (IP) injection of 2 mg/kg; cited from earlier work
[2] = biological target: T1, BK channels (HEK-293 cell line expressing functional alpha subunits of BK channels) (Homo sapiens, UniProt Q12791); assay: Whole-cell patch clamp assay of BK channel stimulatory activity; type: cell-based; conditions: 3 μM, percentage of control, stably transfected HEK-293 cells
T1 construct: expressed in transfected cells; host or cells: HEK-293 (stably transfected; geneticin and blasticidin selection)
Method: HEK-293 cell line expressing functional alpha subunits of BK channels were passaged at a confluence of 50 to 80%. Cells were seeded into 35 mm sterile culture dishes containing 2 mL culture complete medium. Cells were cultivated at a density that enables single cells (without visible connections to neighbouring cells) to be measured.
Cells were incubated at 37° C. in a humidified atmosphere with 5% CO2 (relative humidity about 95%). […]
The 35 mm culture dishes upon which cells were seeded at a density allowing single cells to be recorded were placed on the dish holder of the microscope and continuously perfused (at approximately 1 mL/min) with the bath solution described. […]
Values (in pA/nA) of the current amplitudes were generated for each voltage step. The recorded current amplitudes at the steady state level of current modulation (+50 mV) were compared to those from control conditions measured in the pre-treatment phase of the same cell with SigmaPlot. The amount of current modulation was calculated as percentage of control. Data from at least 2 individual experiments were collected and the corresponding mean values and standard errors calculated.

T1 sequence (Q12791 whole entry): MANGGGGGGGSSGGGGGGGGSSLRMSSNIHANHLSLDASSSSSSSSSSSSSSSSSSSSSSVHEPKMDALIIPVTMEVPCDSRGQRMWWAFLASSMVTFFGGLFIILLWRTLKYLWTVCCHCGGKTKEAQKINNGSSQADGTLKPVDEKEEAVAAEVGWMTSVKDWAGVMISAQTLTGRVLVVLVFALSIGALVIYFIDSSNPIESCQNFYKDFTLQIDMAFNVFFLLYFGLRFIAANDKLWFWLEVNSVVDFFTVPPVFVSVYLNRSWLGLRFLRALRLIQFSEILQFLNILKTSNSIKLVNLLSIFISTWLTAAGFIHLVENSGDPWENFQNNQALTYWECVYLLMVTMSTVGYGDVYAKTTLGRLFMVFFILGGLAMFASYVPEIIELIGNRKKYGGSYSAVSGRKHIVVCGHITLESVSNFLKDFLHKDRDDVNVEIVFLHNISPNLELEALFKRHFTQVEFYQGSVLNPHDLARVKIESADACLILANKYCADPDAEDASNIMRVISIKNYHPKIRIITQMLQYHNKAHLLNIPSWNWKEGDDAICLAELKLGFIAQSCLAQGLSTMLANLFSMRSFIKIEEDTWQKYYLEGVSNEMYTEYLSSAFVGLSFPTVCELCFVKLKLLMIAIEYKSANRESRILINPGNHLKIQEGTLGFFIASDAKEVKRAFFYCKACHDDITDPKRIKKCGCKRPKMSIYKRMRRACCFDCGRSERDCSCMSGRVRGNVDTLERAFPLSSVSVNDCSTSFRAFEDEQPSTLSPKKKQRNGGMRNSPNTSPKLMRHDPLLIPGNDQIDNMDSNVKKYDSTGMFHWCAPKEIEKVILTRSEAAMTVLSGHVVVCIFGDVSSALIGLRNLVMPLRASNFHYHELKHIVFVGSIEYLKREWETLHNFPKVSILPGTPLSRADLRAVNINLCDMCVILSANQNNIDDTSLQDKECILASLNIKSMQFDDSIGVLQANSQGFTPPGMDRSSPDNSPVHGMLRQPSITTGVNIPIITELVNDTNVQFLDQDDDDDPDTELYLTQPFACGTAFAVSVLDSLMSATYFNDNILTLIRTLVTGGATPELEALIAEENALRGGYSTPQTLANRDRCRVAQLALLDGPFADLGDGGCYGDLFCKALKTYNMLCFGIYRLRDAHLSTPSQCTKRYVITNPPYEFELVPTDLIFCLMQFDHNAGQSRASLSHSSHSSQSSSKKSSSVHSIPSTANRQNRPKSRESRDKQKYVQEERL

Compound | Covalent binding of metabolic degradation product to plasma proteins (plasma proteins) | Cmax [1] | Mean stimulation of BK channel activity at +50 mV [2] [%]
COc1ccc(Cl)cc1[C@]1(F)C(=O)Nc2cc(C(F)(F)F)ccc21 [BMS-204352, (3S)-(+)-(5-chloro-2-methoxyphenyl)-1,3-dihydro-3-fluoro-6-(trifluoromethyl)-2H-indol-2-one] | gives rise to a metabolic degradation product that covalently binds to plasma proteins | about 130 ng/mL | 216.59
COc1ccc(Cl)cc1C1(C)C(=O)Nc2cc(C(F)(F)F)ccc21 (stereo not shown) [Example 1, 3-(5-chloro-2-methoxyphenyl)-3-methyl-6-(trifluoromethyl)indolin-2-one] |  |  | 204.09
